Laboratory results from patent publication US5709816A, “Singlet oxygen quenchers and external compositions containing the same” (Kao Corporation, priority 1899, dated 1998).

Key:
[1] = Quenching rate constant of singlet oxygen (Rose Bengal photosensitization, Stern-Volmer method); format: biochemical; details: kq; ethanol solution, 50 μM Rose Bengal; singlet oxygen lifetime taken as 10 μs
From the text: Method for measuring the quenching rate constant of singlet oxygen:
The apparatus used for measuring singlet oxygen included the following parts.
(1) Light source: Xenon lamp (150 W) (Atago Bussan K.K.)
(2) Filters on the excitation side: Water filter (optical path: 50 mm), Color glass filters (HA-15, HA-30, G-533, manufactured by Hoya K.K.)
(3) Sample: Square quartz cell (2×10×50 mm)
(4) Filters on the detection side: Color glass filter (IR-85, manufactured by Hoya K.K.), Interference filter (Nippon Shinku-Kogaku K.K.)
(5) Spectrometer and detector: Spectrometer (HR-320, Jovin Yvon Co.), Germanium (Ge) detector (EO-817L, a type using liquid nitrogen as a coolant, North coast Scientic Corporation)
(6) Amplifier: Light chopper (5584, NF Co.), Frequency filter (E-3201B, NF Co.), Super low noise amplifier (SA-200F3, NF Co.), Digital storage oscilloscope (2431L, SONY Tektronix Co.)
(7) Recording section: Personal computer (PC-9801 BA, NEC Corporation), GP-IB interface
(8) Oxygen concentration control unit: High-pressure oxygen cylinder
Using this apparatus, light was irradiated onto a system which is known to produce singlet oxygen through photochemical sensitization. The wavelength of the light was within an appropriate absorption range of the photosensitizer employed. weak emission in the near infrared region, which is specific to singlet oxygen, was measured for its intensity I. Subsequently, the emission obtained when a test substance was added to the same system was measured. From the decrease in emission intensity I, the quenching rate constant of singlet oxygen of the test substance could be measured in accordance with the Stern-Volmer method. However, since some substances react with the photochemical sensitization system to cause errors in the measurements, the method described by R. H. Young et al., Photochem. Photobiol., vol. 17, p. 233 (1973) was applied to correct this contribution quenching.
A 50 μM ethanol solution of Rose Bengal in a 400 μl square quartz cell was used as a test substance.
First, the light within 490-590 nm, which is appropriate for the maximum absorption wavelength of Rose Bengal, was irradiated onto the cell containing the test substance.
Similarly, another system was subjected to measurement in which a typical singlet oxygen quencher, β-carotene, sodium azide,or 1,4-diazabicyclo[2.2.2]octane, had been added.
Measurement of the quenching rate constant of singlet oxygen: An ethanol solution of each of compounds obtained in the above-described Synthesis Examples and N-phenyldiethanolamine (compound (36)), with Rose Bengal, as a conventional photosensitizer, was used for the measurement of the quenching rate constants of singlet oxygen.
First, emission intensity I of a mixture solution containing 50 μM of Rose Bengal and the above compounds were measured under saturated air conditions. The ratio IOair /Iair was calculated, wherein Iair represents the emission intensity measured for a solution with a test substance at a concentration of Cq (Iair), and Oair represents the emission intensity measured for a solution without test substance. Next, under saturated oxygen conditions, emission intensity was measured for a solution with a test substance at the same concentration Cq (I302). Using these emission intensities, the correction term Fair was obtained in accordance with the following equation.
Interference attributed to the test substance with respect to the photosensitization reaction system was corrected by multiplying IOair /Iair by Fair.
Using the following equation:
(IOair /Iair)'=1+kq ·.tau.·Cq

[2] = tested on: skin of colored guinea pigs; experiment: Inhibition of delayed darkening (UV-A/UV-B irradiation); format: in vivo; details: 7 wt. % in ethanol; UV-A/UV-B 50 J/cm^2; 14 days after irradiation; color difference meter
Description: Inhibition of delayed darkening
The hair of colored guinea pigs (8 week old, female) hair was removed, and an ethanol solution containing a test substance (7 wt. %) was applied to the skin. A mixture of UV- A/UV-B rays (50 J/cm^2, measured at 365 nm using a UV-radiometer UVR-305/365-D, Torex Co.) was irradiated onto the back of each guinea pig using a solar simulator. Fourteen days after irradiation, delayed darkening inhibition ratios were measured using a color difference meter (Model 1001P. Nippon Kogyo Co., Ltd.).

[3] = tested on: dopachrome formation from dopa; experiment: Inhibition of immediate pigment darkening (dopachrome formation from dopa, porphyrin + UV); format: biochemical; details: 0.5 wt. % in ethanol; dopa 1 mM, porphyrin 5 mM; UV-A/UV-B 3 J/cm^2; absorption at 475 nm
Description: Inhibition of immediate pigment darkening
An ethanol solution containing a test substance (0.5 wt. %) was added to a mixture of dopa (1 mM) and porphyrin (5 mM). A mixture of UV-A/UV-B (3 J/cm^2, measured at 365 nm) was irradiated onto the resultant mixture using a solar simulator. The amount of dopachrome formed by irradiation was determined by measuring absorption at 475 nm.

collagen = experiment: Inhibition of protein denaturation (collagen crosslinking, porphyrin + UV); format: biochemical; details: 0.1 wt. % in ethanol; collagen 0.5 mg/ml, porphyrin 100 mM; UV-A/UV-B 3 J/cm^2; SDS-PAGE
Description: Inhibition of protein denaturation
An ethanol solution containing a test substance (0.1 wt. %) was added to a mixture of collagen (0.5 mg/ml) and 2 porphyrin (100 mM). A mixture of UV-A/UV-B (3 J/cm^2, measured at 365 nm) was irradiated onto the resultant mixture using a solar simulator. The irradiated mixture was applied to SDS-PAGE electrophoresis, and collagen crosslinking inhibition ratios were measured.

[4] = tested on: cultured human fibroblasts; experiment: Inhibition of lipid peroxide formation in cultured human fibroblasts (TBA method); format: cell-based; details: Homo sapiens, Fibroblast, light or radiation study, 0.01 wt. % in ethanol, 100 mM porphyrin, UV-A/UV-B 1 J/cm^2, read-out: Inhibition ratio regarding lipid peroxide formation
Description: Inhibition of lipid peroxide formation
Cultured human fibroblasts were combined with 100 mM porphyrin and a test substance (0.01 wt. %, in ethanol). A mixture of UV-A/UV-B rays (1 J/cm^2, measurements performed at 365 nm) was irradiated onto the resultant cell culture using a solar simulator. The fibroblasts were collected after the trypsin treatment, then extracted hydrophobic substances using acetone. The extracted substances were dried under nitrogen to prepare cellular lipid samples. A TBA method was used to measure lipid peroxides in cells and inhibition ratio by a test substance.

[5] = tested on: E. coli vector pUC119 DNA; format: biochemical; details: 0.01 wt. % in ethanol; 100 mM porphyrin; UV-A/UV-B 3 J/cm^2; agarose gel electrophoresis
Description: To a mixture of […] E. coli vector pUC119 DNA and 100 mM porphyrin, an ethanol solution containing a test substance (0.01 wt. %) was added. A mixture of UV-A/UV-B (3 J/cm^2, measured at 365 nm) was irradiated onto the resultant DNA mixture using a solar simulator. A 2.5-fold amount of ethanol and a 0.1-fold amount of 5M sodium acetate were added and the DNA was precipitated. The DNA pellet was dissolved in a TE buffer, and analyzed through agarose gel electrophoresis. Inhibition of DNA single strand breaks formation was measured.

| Structure (SMILES) | Extinction rate constant of singlet oxygen [1] [M⁻¹ s⁻¹] | ΔΔL value [2] | Inhibition ratio regarding immediate blackening [3] [%] | Protein denaturation inhibition ratio (collagen) [%] | inhibition at 0.01 wt% [4] [%] | Prevention of DNA damage [5] [%] |
| --- | --- | --- | --- | --- | --- | --- |
| COCC(O)CN(C)c1ccc(OC)cc1 (stereo not drawn) [Compound (1), N-(2-hydroxy-3-methoxypropyl)-N-methyl-p-anisidine] | 2.2e+08 | 1.7 | 71 | 85 | 51 | 69 |
| CCCCN(CC(O)COC)c1ccc(OC)cc1 (stereo not drawn) [Compound (2), N-n-butyl-N-(2-hydroxy-3-methoxypropyl)-p-anisidine] | 2e+08 | 1.1 | 57 | 62 | 43 | 50 |
| CCCCCCCCN(CC(O)COC)c1ccc(OC)cc1 (stereo not drawn) [Compound (3), N-(2-hydroxy-3-methoxypropyl)-N-n-octyl-p-anisidine] | 2.3e+08 | 2.0 | 83 | 93 | 60 | 71 |
| COCC(O)CN(CC(O)COC)c1ccc(C)cc1 (stereo not drawn) [Compound (4), N,N-bis(2-hydroxy-3-methoxypropyl)-p-toluidine] | 2.1e+08 | 1.8 | 76 | 87 | 57 | 69 |
| CCCCN(CC(O)COC)c1ccc(C)cc1 (stereo not drawn) [Compound (5), N-n-butyl-N-(2-hydroxy-3-methoxypropyl)-p-toluidine] | 1.5e+08 | 1.5 | 65 | 81 | 48 | 66 |
| CCCCN(CC(O)COC)c1ccccc1 (stereo not drawn) [Compound (6), N-n-butyl-N-(2-hydroxy-3-methoxypropyl)aniline] | 1.1e+08 | 1.1 | 53 | 53 | 40 | 47 |
| CCCCN(CC(O)COC)c1ccc(C)c(C)c1 (stereo not drawn) [Compound (32), N-n-butyl-N-(2-hydroxy-3-methoxypropyl)-3,4-xylidine] | 1.6e+08 | 1.3 | 56 | 88 | 54 | 61 |
| Cc1ccc(N(C)CC(O)CO)cc1 (stereo not drawn) [Compound (33), N-(2,3-dihydroxypropyl)-N-methyl-p-toluidine] | 1.4e+08 | 1.1 | 67 | 44 | 47 | 48 |
| CCCCN(CC(O)CO)c1ccc(C)c(C)c1 (stereo not drawn) [Compound (34), N-n-butyl-N-(2,3-dihydroxypropyl)-3,4-xylidine] | 1.7e+08 | 1.3 | 63 | 61 | 52 | 64 |
| CCCCCCCCN(CC(O)CO)c1ccc(OC)cc1 (stereo not drawn) [Compound (35), N-(2,3-dihydroxypropyl)-N-octyl-p-anisidine] | 2.2e+08 | 1.9 | 78 | 84 | 56 | 79 |
